Measurements as given in patent US9757320B2, “Oral care composition” (Colgate-Palmolive Company, priority 2012, dated 2017).

Assays:
A. viscuosus = assay: Minimum inhibitory concentration test: optical density at 610 nm of A. viscuosus in tryptic soy broth, 96 well plate; format: cell-based; conditions: 37° C. for 18 hours
Description: Stock solutions of the zinc ascorbyl phosphate of Example 1, ascorbyl phosphate, zinc oxide, and the zinc-lysine complex were each prepared in water. The concentration of active ingredient in each solution was 0.1 M. Aliquots of each test solution (200 μL) were placed in the first row of a 96 well plate. Serial dilutions of the stock solutions were prepared on the plate by mixing the stock solutions with tryptic soy broth on a 1:1 basis. The concentrations of active ingredient prepared on this basis varied from 50 mM to 0.00488 mM.
A solution of A. viscuosus with an optical density of 0.2 at 610 nm was prepared. Aliquots of the A. viscuosus solution (100 μL) were then added to each test well. Four control wells containing TSB buffer and A. viscuosus solution were prepared. Four blank wells containing TSB buffer alone were also prepared.
The plate was then incubated at 37° C. for 18 hours. The optical density of each well at 610 nm was then recorded using a plate reader.

[1] = cited from earlier work
[2] = 50 mM active ingredient, lower reading = improved antibacterial effect

Row | Molecule | optical density reading (A. viscuosus; 0.005 mM active ingredient) | optical density reading (A. viscuosus; 0.00977 mM active ingredient) | optical density reading (A. viscuosus; 0.195 mM active ingredient) | optical density reading (A. viscuosus; 0.391 mM active ingredient) | optical density reading (A. viscuosus; 0.781 mM active ingredient) | optical density reading (A. viscuosus; 1.563 mM active ingredient) | optical density reading (A. viscuosus; 3.125 mM active ingredient) | optical density reading (A. viscuosus; 6.25 mM active ingredient) | optical density reading (A. viscuosus; 12.5 mM active ingredient) | optical density reading (A. viscuosus; 25 mM active ingredient) | optical density reading (A. viscuosus; [2]) | solubility under aqueous conditions [1]
1 | CCCCCCCCCCCCCCCC(=O)OC[C@H](O)[C@H]1OC(=O)C(O)=C1O [Ascorbyl Palmitate] | 0.70 | 0.71 | 0.71 | 0.69 | 0.70 | 0.70 | 0.68 | 0.69 | 0.72 | 0.68 | 0.64 | –
2 | zinc-lysine complex | 0.68 | 0.71 | 0.69 | 0.65 | 0.58 | 0.44 | 0.34 | 0.15 | 0.20 | 0.35 | 0.56 | –
3 | [O]=[Zn] [Zinc Oxide, zinc oxide] | 0.68 | 0.68 | 0.67 | 0.66 | 0.60 | 0.45 | 0.33 | 0.29 | 0.40 | 0.65 | 1.55 | poorly soluble
